Values of other authors as cited in patent publication US5763435A, “Sulfate conjugates of ursodeoxycholic acid, and their beneficial use in inflammatory disorders” (priority 1995, dated 1998).

Key:
colonic epithelial cell = conditions: in vitro; cited from earlier work
[1] = rat, in vivo; cited from earlier work

| Compound | Effect on colonic epithelial cell proliferation (in words) (colonic epithelial cell) | Metabolism to 3α,7α-disulfate, 6β-hydroxy 5β-cholanoic acid [1] [%] |
| --- | --- | --- |
| C[C@H](CCC(=O)O)[C@H]1CC[C@H]2[C@@H]3CC[C@@H]4C[C@H](O)CC[C@]4(C)[C@H]3CC[C@]12C [lithocholic acids, lithocholic acid] | comitogenic |  |
| C[C@H](CCC(=O)NCC(=O)O)[C@H]1CC[C@H]2[C@@H]3[C@H](OS(=O)(=O)O)C[C@@H]4C[C@H](OS(=O)(=O)O)CC[C@]4(C)[C@H]3CC[C@]12C [glycochenodeoxycholic acid disulfates] |  | 90 |
| C[C@H](CCC(=O)O)[C@H]1CC[C@H]2[C@@H]3CC[C@@H]4C[C@H](O)CC[C@]4(C)[C@H]3C[C@H](O)[C@]12C [deoxycholic, deoxycholic acid] | comitogenic |  |
| C[C@H](CCC(=O)NCCS(=O)(=O)O)[C@H]1CC[C@H]2[C@@H]3[C@H](OS(=O)(=O)O)C[C@@H]4C[C@H](OS(=O)(=O)O)CC[C@]4(C)[C@H]3CC[C@]12C [taurochenodeoxycholic acid disulfates] |  | 90 |
